The text below walks through data of publication PMC10847579, “Recording ten-fold larger IKr conductances with automated patch clamping using equimolar Cs^+ solutions” (Frontiers in Physiology, 2024).

For data set [1], the target named is T1, hERG channel (Homo sapiens, UniProt Q12809).
T1 construct: host or cells: CHO cre/lox hERG
As to the kind of experiment: Automated patch clamp (Nanion Patchliner) of hERG current in CHO-hERG cells with K+ solutions. The class given is cell-based. (In general: In patch-clamp work, channel activity is measured electrically.)
Description: (§1) A cell passage was performed twice a week and kept under 20 passages for optimal cell quality. […] Thereafter, the cells were resuspended in 1.7 mL external K^+ solution.
(§2) After sample preparation, experiments on CHO cells were performed at 22°C on the Nanion® Patchliner system (Nanion Technologies, Munich, Germany) with a EPC-10 Quadro Amplifier (HEKA, Reutlingen, Germany) controlled by Patchmaster 2.90.5. Recordings were performed using membrane capacitance and series resistance compensation (70%). The chip (NPC-16 medium resistance, Nanion Technologies) was filled with either the K^+ or Cs^+ internal and external solution with a resistance between 2 and 4 MOhm. Thereafter, the cells were added to the chip. After the capture of a cell, the seal enhancer solution was added, obtaining a Rseal of at least 200 MOhm. Next, the chip was flushed with an external solution. During the experiment, four cells were measured simultaneously in separate chambers of the chip.
(§3) For all experiments, the drugs were incubated for 60 s before measuring and an activation pulse of +20 mV and −80 mV both for 500 m was given to open the channel and achieve the steady-state ion channel–drug interaction.
For Cs^+-based experiments, the cells were depolarized from a holding potential of −80 mV in 10-mV increments between −70 mV and +40 mV for 3 s. Thereafter, the cell was clamped back to −80 mV for 2 s, followed by a hyperpolarization step to −100 mV for 50 ms before returning to −80 mV. In K^+-based experiments, the cells were clamped at a holding potential of −80 mV before a hyperpolarizing step to −120 mV for 10 ms and returned to −80 mV for 50 ms before cells were depolarized from −60 mV to 60 mV in 10-mV increments for 1 s. Thereafter, the cells were clamped back to −50 mV for 500 ms and finally returned to −80 mV. The interval between sweeps was 10 s for both protocols.
For the stock solutions, the drugs were dissolved in ddH2O and for the working solution diluted in either the K^+ or Cs^+ external solution. The different concentrations per compound were sequentially tested on the same cell.
For all measured currents, the current densities (pA/pF) were determined by normalizing for the membrane capacitance. The current densities were converted to conductance densities (pS/pF) using reversal potentials calculated using the Nernst equation for the solution and temperature used.
Dose–response curves were made with the tail current values at 40 mV, which were the largest current densities.
All averages are expressed as mean ± SEM for the (maximal) conductance values and IC50 values. To determine the amount of block, a two-way ANOVA with Dunnett’s test was performed with the maximal conductance values. […]

Data set [2] deals with T1, hERG channel. As to the kind of experiment: Automated patch clamp (Nanion Patchliner) of hERG current in CHO-hERG cells with equimolar Cs+ solutions. The data set is classed as cell-based.
Description: as §1, §2, §3
For Cs^+-based experiments, the cells were depolarized from a holding potential of −80 mV in 10-mV increments between −70 mV and +40 mV for 3 s. Thereafter, the cell was clamped back to −80 mV for 2 s, followed by a hyperpolarization step to −100 mV for 50 ms before returning to −80 mV. In K^+-based experiments, the cells were clamped at a holding potential of −80 mV before a hyperpolarizing step to −120 mV for 10 ms and returned to −80 mV for 50 ms before cells were depolarized from −60 mV to 60 mV in 10-mV increments for 1 s. […]
For all measured currents, the current densities (pA/pF) were determined by normalizing for the membrane capacitance. The current densities were converted to conductance densities (pS/pF) using reversal potentials calculated using the Nernst equation for the solution and temperature used. […]
All averages are expressed as mean ± SEM for the (maximal) conductance values and IC50 values. […]

T1 sequence (Q12809 whole entry): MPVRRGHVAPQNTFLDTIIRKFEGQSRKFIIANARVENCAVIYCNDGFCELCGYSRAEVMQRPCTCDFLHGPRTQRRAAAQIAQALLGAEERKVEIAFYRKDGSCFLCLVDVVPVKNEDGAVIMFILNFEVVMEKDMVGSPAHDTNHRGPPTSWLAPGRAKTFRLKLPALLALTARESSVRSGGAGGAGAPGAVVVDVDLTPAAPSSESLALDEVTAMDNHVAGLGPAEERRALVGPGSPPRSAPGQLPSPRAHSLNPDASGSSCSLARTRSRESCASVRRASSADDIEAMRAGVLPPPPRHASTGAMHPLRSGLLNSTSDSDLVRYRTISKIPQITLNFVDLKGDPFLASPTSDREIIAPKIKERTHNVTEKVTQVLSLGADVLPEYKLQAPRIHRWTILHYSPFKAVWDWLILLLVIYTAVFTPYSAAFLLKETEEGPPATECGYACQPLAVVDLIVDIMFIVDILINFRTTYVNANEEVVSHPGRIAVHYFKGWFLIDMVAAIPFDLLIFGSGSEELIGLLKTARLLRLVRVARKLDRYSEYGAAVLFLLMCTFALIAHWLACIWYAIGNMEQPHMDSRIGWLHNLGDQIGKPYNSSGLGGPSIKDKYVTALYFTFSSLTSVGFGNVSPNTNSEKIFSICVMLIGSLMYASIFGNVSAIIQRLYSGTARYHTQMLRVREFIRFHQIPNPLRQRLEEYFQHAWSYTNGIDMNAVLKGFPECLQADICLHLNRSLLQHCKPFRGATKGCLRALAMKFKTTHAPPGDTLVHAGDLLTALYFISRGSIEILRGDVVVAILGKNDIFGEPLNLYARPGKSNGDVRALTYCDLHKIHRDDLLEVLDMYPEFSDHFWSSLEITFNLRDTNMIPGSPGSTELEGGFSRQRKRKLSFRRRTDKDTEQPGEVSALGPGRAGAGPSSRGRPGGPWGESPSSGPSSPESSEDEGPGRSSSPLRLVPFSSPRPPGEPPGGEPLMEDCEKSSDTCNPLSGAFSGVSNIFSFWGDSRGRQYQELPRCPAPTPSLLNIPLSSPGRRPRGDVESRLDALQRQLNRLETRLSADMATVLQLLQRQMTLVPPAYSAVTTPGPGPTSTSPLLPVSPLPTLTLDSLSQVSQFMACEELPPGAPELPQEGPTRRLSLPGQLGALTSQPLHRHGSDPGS

Turning to `CNCCCN1c2ccccc2CCc2ccccc21` [Desipramine], the “effect on K+ step conductance” value on hERG channel [1] (K+ solutions, 1 µM) is “almost completely inhibited”. For the same compound, the “effect on K+ tail conductance” value at hERG channel [1] (K+ solutions, 100 and 1,000 µM) is “completely blocked”. For the same compound, the Hill coef. at hERG channel [1] (K+ solutions, tail current at +40 mV) is reported as −1.4; at hERG channel [2] (tail current at +40 mV), −1.4. Further, the “strength of hERG current inhibition” value on hERG channel [1] (comparison of the drugs, Figure 1 (K+ and Cs+ solutions)) is given as “modest inhibition”. At hERG channel [2] (100 µM (highest)), the “effect on Cs+ step conductance” value was “slightly decreased”. The “effect on Cs+ tail conductance” value on hERG channel [2] (100 µM (highest)) is reported as “strong decrease but not a complete block”.
